Assay results taken from PMC6566410, “Novel Diamide-Based Benzenesulfonamides as Selective Carbonic Anhydrase IX Inhibitors Endowed with Antitumor Activity: Synthesis, Biological Evaluation and In Silico Insights” (International Journal of Molecular Sciences, 2019).

Assays:
Test in all cases: NCI one-dose SRB assay
A549/ATCC = format: cell-based; conditions: Homo sapiens, A549/ATCC (Non-Small Cell Lung Cancer), 1.00E-5 Molar, read-out: Growth Percent
Summary of the method: (§1)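 Single-dose screen at 10^−5 M across the NCI sixty-cell-line panel, run per the US-NCI Developmental Therapeutic Program protocol. Cell growth and viability were read by sulforhodamine B colorimetric assay.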

ACHN = format: cell-based; conditions: Homo sapiens, ACHN (Renal Cancer), 1.00E-5 Molar, read-out: Growth Percent
Summary of the method: as §1

CAKI-1 = format: cell-based; conditions: Homo sapiens, CAKI-1 (Renal Cancer), 1.00E-5 Molar, read-out: Growth Percent
Summary of the method: as §1

CCRF-CEM = format: cell-based; conditions: Homo sapiens, CCRF-CEM (Leukemia), 1.00E-5 Molar, read-out: Growth Percent
Summary of the method: as §1

COLO 205 = format: cell-based; conditions: Homo sapiens, COLO 205 (Colon Cancer), 1.00E-5 Molar, read-out: Growth Percent
Summary of the method: as §1

HCC-2998 = format: cell-based; conditions: Homo sapiens, HCC-2998 (Colon Cancer), 1.00E-5 Molar, read-out: Growth Percent
Summary of the method: as §1

HCT-15 = format: cell-based; conditions: Homo sapiens, HCT-15 (Colon Cancer), 1.00E-5 Molar, read-out: Growth Percent
Summary of the method: as §1

HL-60(TB) = format: cell-based; conditions: Homo sapiens, HL-60(TB) (Leukemia), 1.00E-5 Molar, read-out: Growth Percent
Summary of the method: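 NCI-60 one-dose protocol: compound at 10^−5 M; growth and viability quantified with SRB dye.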

HOP-62 = format: cell-based; conditions: Homo sapiens, HOP-62 (Non-Small Cell Lung Cancer), 1.00E-5 Molar, read-out: Growth Percent
Summary of the method: as §1

HS 578T = format: cell-based; conditions: Homo sapiens, HS 578T (Breast Cancer), 1.00E-5 Molar, read-out: Growth Percent
Summary of the method: as §1

HT29 = format: cell-based; conditions: Homo sapiens, HT-29, HT29 (Colon Cancer), 1.00E-5 Molar, read-out: Growth Percent
Summary of the method: as §1

K-562 = format: cell-based; conditions: Homo sapiens, K562, K-562 (Leukemia), 1.00E-5 Molar, read-out: Growth Percent
Summary of the method: as §1

M14 = format: cell-based; conditions: Homo sapiens, M14 (Melanoma), 1.00E-5 Molar, read-out: Growth Percent
Summary of the method: as §1

MDA-MB-231/ATCC = format: cell-based; conditions: Homo sapiens, MDA-MB-231/ATCC (Breast Cancer), 1.00E-5 Molar, read-out: Growth Percent
Summary of the method: as §1

MDA-MB-435 = format: cell-based; conditions: Homo sapiens, MDA-MB-435 (Melanoma), 1.00E-5 Molar, read-out: Growth Percent
Summary of the method: as §1

MOLT-4 = format: cell-based; conditions: Homo sapiens, MOLT-4 (Leukemia), 1.00E-5 Molar, read-out: Growth Percent
Summary of the method: as §1

NCI-H226 = format: cell-based; conditions: Homo sapiens, NCI-H226 (Non-Small Cell Lung Cancer), 1.00E-5 Molar, read-out: Growth Percent
Summary of the method: as §1

NCI-H322M = format: cell-based; conditions: Homo sapiens, NCI-H322M (Non-Small Cell Lung Cancer), 1.00E-5 Molar, read-out: Growth Percent
Summary of the method: as §1

NCI-H522 = format: cell-based; conditions: Homo sapiens, NCI-H522 (Non-Small Cell Lung Cancer), 1.00E-5 Molar, read-out: Growth Percent
Summary of the method: as §1

NCI/ADR-RES = format: cell-based; conditions: Homo sapiens, NCI/ADR-RES (Ovarian Cancer), 1.00E-5 Molar, read-out: Growth Percent
Summary of the method: as §1

PC-3 = format: cell-based; conditions: Homo sapiens, PC-3 (Prostate Cancer), 1.00E-5 Molar, read-out: Growth Percent
Summary of the method: as §1

RXF 393 = format: cell-based; conditions: Homo sapiens, RXF 393 (Renal Cancer), 1.00E-5 Molar, read-out: Growth Percent
Summary of the method: as §1

SK-MEL-2 = format: cell-based; conditions: Homo sapiens, SK-MEL-2 (Melanoma), 1.00E-5 Molar, read-out: Growth Percent
Summary of the method: as §1

SK-OV-3 = format: cell-based; conditions: Homo sapiens, SK-OV-3 (Ovarian Cancer), 1.00E-5 Molar, read-out: Growth Percent
Summary of the method: as §1

SNB-19 = format: cell-based; conditions: Homo sapiens, SNB-19 (CNS Cancer), 1.00E-5 Molar, read-out: Growth Percent
Summary of the method: as §1

SW-620 = format: cell-based; conditions: Homo sapiens, SW-620 (Colon Cancer), 1.00E-5 Molar, read-out: Growth Percent
Summary of the method: as §1

T-47D = format: cell-based; conditions: Homo sapiens, T47D, T-47D (Breast Cancer), 1.00E-5 Molar, read-out: Growth Percent
Summary of the method: as §1

TK-10 = format: cell-based; conditions: Homo sapiens, TK-10 (Renal Cancer), 1.00E-5 Molar, read-out: Growth Percent
Summary of the method: as §1

U251 = format: cell-based; conditions: Homo sapiens, U-251, U251 (CNS Cancer), 1.00E-5 Molar, read-out: Growth Percent
Summary of the method: as §1

UACC-257 = format: cell-based; conditions: Homo sapiens, UACC-257 (Melanoma), 1.00E-5 Molar, read-out: Growth Percent
Summary of the method: as §1

SR = format: cell-based, human; conditions: SR (Leukemia), 1.00E-5 Molar
Method: First, all diamide-based benzenesulfonamides herein reported 5a–h were screened for their antitumor activity at one dose (10^−5 M) assay against a panel of sixty cancer cell lines through the National Cancer Institute (NCI) Developmental Therapeutic Program (www.dtp.nci.nih.gov), according to US-NCI protocol. The cell growth and cell viability were evaluated using the sulforhodamine B (SRB) colorimetric assay.
This assay was carried out according to the protocol of the Drug Evaluation Branch, NCI, Bethesda. The cell growth and cell viability were evaluated using the sulforhodamine B (SRB) colorimetric assay, as reported earlier.

| SMILES | activity at 10 µM (A549/ATCC) [%] | activity at 10 µM (ACHN) [%] | activity at 10 µM (CAKI-1) [%] | activity at 10 µM (CCRF-CEM) [%] | activity at 10 µM (COLO 205) [%] | activity at 10 µM (HCC-2998) [%] | activity at 10 µM (HCT-15) [%] | activity at 10 µM (HL-60(TB)) [%] | activity at 10 µM (HOP-62) [%] | activity at 10 µM (HS 578T) [%] | activity at 10 µM (HT29) [%] | activity at 10 µM (K-562) [%] | activity at 10 µM (M14) [%] | activity at 10 µM (MDA-MB-231/ATCC) [%] | activity at 10 µM (MDA-MB-435) [%] | activity at 10 µM (MOLT-4) [%] | activity at 10 µM (NCI-H226) [%] | activity at 10 µM (NCI-H322M) [%] | activity at 10 µM (NCI-H522) [%] | activity at 10 µM (NCI/ADR-RES) [%] | further results |
| --- | --- | --- | --- | --- | --- | --- | --- | --- | --- | --- | --- | --- | --- | --- | --- | --- | --- | --- | --- | --- | --- |
| NS(=O)(=O)c1ccc(NC(=O)C(=Cc2ccc(Cl)cc2)NC(=O)c2ccccc2)cc1 [Compound 5a, N-(1-(4-Chlorophenyl)-3-oxo-3-((4-sulfamoylphenyl)amino)prop-1-en-2-yl)benzamide] | 101 | 100 | 92.5 | 107 | 104 | 103 | 106 | 101 | 91.9 | 101 | 106 | 109 | 102 | 105 | 98.7 | 103 | 92.9 | 108 | 90.9 | 104 | activity at 10 µM (PC-3): 105%; activity at 10 µM (RXF 393): 103%; activity at 10 µM (SK-MEL-2): 102%; activity at 10 µM (SK-OV-3): 97%; activity at 10 µM (SNB-19): 103%; activity at 10 µM (SW-620): 100%; activity at 10 µM (T-47D): 95.5%; activity at 10 µM (TK-10): 96.6%; activity at 10 µM (U251): 95.3%; activity at 10 µM (UACC-257): 103%; Growth Percent (SR): 96.44% |
| NS(=O)(=O)c1ccc(NC(=O)C(=Cc2ccc(Cl)cc2Cl)NC(=O)c2ccccc2)cc1 [Compound 5b, N-(1-(2,4-Dichlorophenyl)-3-oxo-3-((4-sulfamoylphenyl)amino)prop-1-en-2-yl)benzamide] | 105 | 98.2 | 88.6 | 105 | 110 | 103 | 110 | 84.8 | 95.7 | 89.5 | 103 | 88.2 | 102 | 105 | 97.7 | 92.3 | 103 | 102 | 80.3 | 98.2 | activity at 10 µM (PC-3): 89.4%; activity at 10 µM (RXF 393): 96%; activity at 10 µM (SK-MEL-2): 95.3%; activity at 10 µM (SK-OV-3): 96.3%; activity at 10 µM (SNB-19): 95.6%; activity at 10 µM (SW-620): 104%; activity at 10 µM (T-47D): 87.5%; activity at 10 µM (TK-10): 104%; activity at 10 µM (U251): 97.1%; activity at 10 µM (UACC-257): 102%; Growth Percent (SR): 96.62% |
| Cc1ccc(C=C(NC(=O)c2ccccc2)C(=O)Nc2ccc(S(N)(=O)=O)cc2)o1 [Compound 5h, N-(1-(5-Methylfuran-2-yl)-3-oxo-3-((4-sulfamoylphenyl)amino)prop-1-en-2-yl)benzamide] | 90.6 | 90.9 | 84.4 | 96.9 | 108 | 104 | 92.9 | 94.6 | 95.2 | 76.5 | 86.3 | 96.1 | 114 | 97.4 | 99.3 | 88.9 | 102 | 106 | 85.7 | 92.2 | activity at 10 µM (PC-3): 90.9%; activity at 10 µM (RXF 393): 95.5%; activity at 10 µM (SK-MEL-2): 97.4%; activity at 10 µM (SK-OV-3): 96.5%; activity at 10 µM (SNB-19): 96.4%; activity at 10 µM (SW-620): 106%; activity at 10 µM (T-47D): 85.8%; activity at 10 µM (TK-10): 112%; activity at 10 µM (U251): 88.9%; activity at 10 µM (UACC-257): 99.4% |
